Tests used:
[1] = target: T1, HsEH (Homo sapiens, UniProt P34913); assay: fluorescent-based sEH assay with PHOME as substrate; type: biochemical
T1 sequence (P34913 1-555): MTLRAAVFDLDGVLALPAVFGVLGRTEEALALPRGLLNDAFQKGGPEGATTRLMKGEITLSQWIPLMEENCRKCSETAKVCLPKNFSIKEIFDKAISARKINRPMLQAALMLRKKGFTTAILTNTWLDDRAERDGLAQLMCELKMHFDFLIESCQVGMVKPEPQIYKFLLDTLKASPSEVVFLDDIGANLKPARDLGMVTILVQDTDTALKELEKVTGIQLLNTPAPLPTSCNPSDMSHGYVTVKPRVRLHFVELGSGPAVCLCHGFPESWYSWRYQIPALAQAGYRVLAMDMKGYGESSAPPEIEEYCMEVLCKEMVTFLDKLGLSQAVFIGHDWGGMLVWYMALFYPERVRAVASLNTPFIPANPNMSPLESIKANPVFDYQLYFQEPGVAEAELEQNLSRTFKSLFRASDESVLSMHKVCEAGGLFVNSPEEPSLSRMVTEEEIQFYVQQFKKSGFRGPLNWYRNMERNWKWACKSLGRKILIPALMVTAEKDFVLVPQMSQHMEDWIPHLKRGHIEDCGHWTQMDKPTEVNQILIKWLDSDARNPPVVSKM

[2] = target: T2, MsEH (Mus musculus, UniProt P34914); assay: as above; type: biochemical
T2 sequence (P34914 1-554): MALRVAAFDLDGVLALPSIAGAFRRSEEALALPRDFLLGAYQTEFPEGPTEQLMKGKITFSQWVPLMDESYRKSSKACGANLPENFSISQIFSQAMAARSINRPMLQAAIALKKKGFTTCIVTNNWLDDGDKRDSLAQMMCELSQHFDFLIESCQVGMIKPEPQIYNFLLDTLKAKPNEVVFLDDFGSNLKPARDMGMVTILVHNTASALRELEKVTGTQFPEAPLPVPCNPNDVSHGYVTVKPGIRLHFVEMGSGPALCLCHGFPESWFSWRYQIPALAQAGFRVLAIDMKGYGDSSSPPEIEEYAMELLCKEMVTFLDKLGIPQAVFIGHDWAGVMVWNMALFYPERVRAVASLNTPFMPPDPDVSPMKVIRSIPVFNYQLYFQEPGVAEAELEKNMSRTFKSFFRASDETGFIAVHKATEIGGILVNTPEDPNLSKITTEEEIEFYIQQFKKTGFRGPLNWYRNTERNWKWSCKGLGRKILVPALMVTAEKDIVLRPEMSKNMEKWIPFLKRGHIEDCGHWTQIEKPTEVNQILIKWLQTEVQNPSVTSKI

[3] = target: T3, HDAC6 (Homo sapiens, UniProt Q9UBN7); assay: HDAC enzyme-based fluorogenic assay, HDAC6; type: biochemical; settings: for HDAC6 inhibitor rate: final concentration of 2 μM, preliminary screen
T3 sequence (Q9UBN7 1-1215): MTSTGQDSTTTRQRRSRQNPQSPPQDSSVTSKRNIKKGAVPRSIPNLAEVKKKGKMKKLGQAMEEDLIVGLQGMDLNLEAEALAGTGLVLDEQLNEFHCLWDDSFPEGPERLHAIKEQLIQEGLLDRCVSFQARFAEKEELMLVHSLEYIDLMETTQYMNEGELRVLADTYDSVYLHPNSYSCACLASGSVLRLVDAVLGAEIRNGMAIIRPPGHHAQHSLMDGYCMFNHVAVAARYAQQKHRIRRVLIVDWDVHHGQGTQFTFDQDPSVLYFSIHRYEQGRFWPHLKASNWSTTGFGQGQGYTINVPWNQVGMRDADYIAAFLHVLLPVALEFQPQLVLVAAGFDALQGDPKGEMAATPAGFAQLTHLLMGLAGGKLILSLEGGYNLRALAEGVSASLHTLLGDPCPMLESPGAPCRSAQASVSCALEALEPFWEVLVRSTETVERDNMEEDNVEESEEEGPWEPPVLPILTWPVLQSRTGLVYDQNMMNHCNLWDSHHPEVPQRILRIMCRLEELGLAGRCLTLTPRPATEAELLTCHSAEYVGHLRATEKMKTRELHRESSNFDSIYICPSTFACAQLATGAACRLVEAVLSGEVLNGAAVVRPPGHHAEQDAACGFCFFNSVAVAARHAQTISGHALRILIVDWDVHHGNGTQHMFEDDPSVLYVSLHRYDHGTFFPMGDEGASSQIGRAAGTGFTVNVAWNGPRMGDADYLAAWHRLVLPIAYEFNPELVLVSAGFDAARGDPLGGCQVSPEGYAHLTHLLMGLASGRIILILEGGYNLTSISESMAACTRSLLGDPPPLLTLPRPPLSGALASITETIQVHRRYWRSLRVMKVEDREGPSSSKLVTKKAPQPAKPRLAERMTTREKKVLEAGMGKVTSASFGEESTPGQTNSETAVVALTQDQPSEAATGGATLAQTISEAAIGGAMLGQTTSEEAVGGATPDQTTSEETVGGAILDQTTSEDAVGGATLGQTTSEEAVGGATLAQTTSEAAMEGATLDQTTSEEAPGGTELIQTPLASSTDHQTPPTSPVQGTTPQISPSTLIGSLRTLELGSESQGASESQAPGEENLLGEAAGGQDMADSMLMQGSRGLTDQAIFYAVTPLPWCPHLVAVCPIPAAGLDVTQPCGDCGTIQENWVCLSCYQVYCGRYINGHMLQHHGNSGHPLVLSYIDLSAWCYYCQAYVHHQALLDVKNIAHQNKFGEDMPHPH

[4] = In vitro metabolic stability in rat liver microsomes; type: in vitro ADME; settings: for metabolic stability in RLM, column 0: incubation 0 min; for metabolic stability in RLM, column 0 / metabolic stability in RLM, column 10 / metabolic stability in RLM, column 30 / metabolic stability in RLM, column 45 / metabolic stability in RLM, column 60: 37 °C, NADPH; for metabolic stability in RLM, column 10: incubation 10 min; for metabolic stability in RLM, column 30: incubation 30 min; for metabolic stability in RLM, column 45: incubation 45 min; for metabolic stability in RLM, column 60: incubation 60 min; for t1/2 in RLM: rat liver microsomes
[5] = target: HDAC1 (Homo sapiens, UniProt Q13547); assay: HDAC enzyme-based fluorogenic assay, HDAC1; type: biochemical; settings: read-out: HDAC1 IC50; mean of at least three experiments
Chain of HDAC1 (Q13547 whole entry): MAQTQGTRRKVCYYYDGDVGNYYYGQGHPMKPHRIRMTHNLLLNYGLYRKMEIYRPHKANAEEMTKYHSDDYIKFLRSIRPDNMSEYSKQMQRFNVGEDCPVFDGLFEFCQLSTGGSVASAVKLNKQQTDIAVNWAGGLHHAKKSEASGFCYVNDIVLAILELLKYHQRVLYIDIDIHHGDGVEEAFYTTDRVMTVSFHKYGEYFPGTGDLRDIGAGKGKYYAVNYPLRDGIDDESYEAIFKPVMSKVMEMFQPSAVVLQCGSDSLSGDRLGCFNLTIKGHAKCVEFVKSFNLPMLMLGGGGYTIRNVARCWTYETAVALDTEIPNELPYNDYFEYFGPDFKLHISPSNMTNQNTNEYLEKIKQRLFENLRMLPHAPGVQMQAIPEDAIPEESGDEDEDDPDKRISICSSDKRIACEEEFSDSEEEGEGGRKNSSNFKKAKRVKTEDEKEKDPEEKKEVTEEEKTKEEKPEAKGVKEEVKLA

[6] = target: HDAC2 (Homo sapiens, UniProt Q92769); assay: HDAC enzyme-based fluorogenic assay, HDAC2; type: biochemical; settings: read-out: HDAC2 IC50; mean of at least three experiments
Chain of HDAC2 (Q92769 whole entry): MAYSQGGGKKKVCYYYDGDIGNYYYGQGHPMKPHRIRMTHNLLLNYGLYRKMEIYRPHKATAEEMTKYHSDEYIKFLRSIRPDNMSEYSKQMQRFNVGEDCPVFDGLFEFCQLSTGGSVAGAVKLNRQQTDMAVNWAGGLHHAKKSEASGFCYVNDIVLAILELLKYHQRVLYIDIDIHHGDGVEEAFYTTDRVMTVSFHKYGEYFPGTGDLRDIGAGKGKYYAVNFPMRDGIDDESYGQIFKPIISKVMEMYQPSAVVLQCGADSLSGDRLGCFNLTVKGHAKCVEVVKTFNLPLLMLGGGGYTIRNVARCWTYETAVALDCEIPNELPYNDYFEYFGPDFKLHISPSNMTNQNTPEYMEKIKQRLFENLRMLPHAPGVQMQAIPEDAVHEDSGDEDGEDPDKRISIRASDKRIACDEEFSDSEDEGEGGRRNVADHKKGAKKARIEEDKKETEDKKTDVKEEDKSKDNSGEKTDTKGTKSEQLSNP

[7] = target: HDAC3 (Homo sapiens, UniProt O15379); assay: HDAC enzyme-based fluorogenic assay, HDAC3; type: biochemical; settings: read-out: HDAC3 IC50; mean of at least three experiments
Chain of HDAC3 (O15379 whole entry): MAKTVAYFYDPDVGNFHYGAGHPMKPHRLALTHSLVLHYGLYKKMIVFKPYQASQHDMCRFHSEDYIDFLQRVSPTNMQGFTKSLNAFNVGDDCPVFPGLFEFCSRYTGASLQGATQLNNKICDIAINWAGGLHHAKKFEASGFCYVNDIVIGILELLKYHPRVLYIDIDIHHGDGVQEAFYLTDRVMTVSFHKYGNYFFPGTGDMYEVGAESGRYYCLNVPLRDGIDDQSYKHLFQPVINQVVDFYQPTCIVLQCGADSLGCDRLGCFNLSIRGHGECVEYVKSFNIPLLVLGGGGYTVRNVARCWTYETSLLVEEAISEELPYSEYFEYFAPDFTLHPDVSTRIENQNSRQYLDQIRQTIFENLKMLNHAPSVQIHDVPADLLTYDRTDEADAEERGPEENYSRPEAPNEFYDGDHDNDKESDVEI
Chain of HDAC3 (Q9Y618 395-489 partner limits assumed): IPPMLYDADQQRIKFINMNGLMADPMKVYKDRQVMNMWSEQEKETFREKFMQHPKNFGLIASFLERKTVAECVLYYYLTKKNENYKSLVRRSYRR

[8] = target: T4, HDAC8 (Homo sapiens, UniProt Q9BY41); assay: HDAC enzyme-based fluorogenic assay, HDAC8; type: biochemical; settings: read-out: HDAC8 IC50; mean of at least three experiments
T4 sequence (Q9BY41 1-377): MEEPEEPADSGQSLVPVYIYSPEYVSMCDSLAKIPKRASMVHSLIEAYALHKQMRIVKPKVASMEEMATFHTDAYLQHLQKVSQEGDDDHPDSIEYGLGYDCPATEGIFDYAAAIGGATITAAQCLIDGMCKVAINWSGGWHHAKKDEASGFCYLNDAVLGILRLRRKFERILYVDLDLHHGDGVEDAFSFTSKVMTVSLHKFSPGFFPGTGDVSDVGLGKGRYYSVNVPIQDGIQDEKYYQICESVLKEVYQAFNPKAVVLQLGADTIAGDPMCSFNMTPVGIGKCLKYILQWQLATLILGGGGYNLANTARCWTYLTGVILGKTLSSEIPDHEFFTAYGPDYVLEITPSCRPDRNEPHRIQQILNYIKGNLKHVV

[9] = target: T5, HDAC11 (Homo sapiens, UniProt Q96DB2); assay: HDAC enzyme-based fluorogenic assay, HDAC11; type: biochemical; settings: read-out: HDAC11 IC50; mean of at least three experiments
T5 sequence (Q96DB2 1-347): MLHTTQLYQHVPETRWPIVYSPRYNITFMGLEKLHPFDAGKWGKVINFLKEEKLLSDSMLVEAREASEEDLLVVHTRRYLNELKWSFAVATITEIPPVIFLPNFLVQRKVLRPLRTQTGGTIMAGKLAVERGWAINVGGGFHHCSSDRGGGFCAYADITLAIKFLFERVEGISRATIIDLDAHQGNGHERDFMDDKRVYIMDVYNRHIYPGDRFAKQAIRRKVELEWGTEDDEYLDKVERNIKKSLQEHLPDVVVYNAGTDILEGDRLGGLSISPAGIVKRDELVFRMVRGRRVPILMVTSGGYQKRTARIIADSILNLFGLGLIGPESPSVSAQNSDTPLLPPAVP

[10] = system: xylene-induced ear swelling inflammation in mice; assay: Xylene-induced ear swelling inflammation model in mice; type: in vivo, Kunming mice; settings: Table 7 dose study, 10 mg/kg by gavage for 7 days
[11] = system: formalin-induced inflammatory pain in mice; assay: Formalin-induced inflammatory pain model in mice; type: in vivo, Kunming mice; settings: dose study, Figure 15; 10 mg/kg, compared with the model group

Cc1ccc(NC(=O)Nc2ccc(C(=O)N3CCC[C@H](C(=O)NCCCCCCC(=O)NO)C3)cc2F)cc1F [Compound 28h, (S)-1-(3-Fluoro-4-(3-(3-fluoro-4-methylphenyl)ureido)benzoyl)-N-(7-(hydroxyamino)-7-oxoheptyl)piperidine-3-carboxamide]
IC50 [1]: 0.7 nM
IC50 [2]: 7.4 nM
HDAC6 inhibitor rate [3]: > 91%

O=C(CCCCCCNC(=O)[C@H]1CCCN(C(=O)c2ccc(NC(=O)Nc3ccc(OC(F)(F)F)c(F)c3)c(F)c2)C1)NO [Compound 28a, (S)-1-(3-Fluoro-4-(3-(3-fluoro-4-(trifluoromethoxy)phenyl)ureido)benzoyl)-N-(7-(hyd-roxyamino)-7-oxoheptyl)piperidine-3-carboxamide]
HDAC6 inhibitor rate [3]: > 91%

C[C@]12C[C@@H]3C[C@](C)(C1)C[C@@](NC(=O)Nc1ccc(CN4CCC[C@H](C(=O)NCCCCCCC(=O)NO)C4)cc1F)(C3)C2 [Compound 16d, (S)-1-(4-(3-((1r,3R,5S,7S)-3,5-Dimethyladamantan-1-yl)ureido)-3-fluorobenzyl)-N-(7-(hydroxyamino)-7-oxoheptyl)piperidine-3-carboxamide]
HDAC6 inhibitor rate [3]: 63%
metabolic stability in RLM, column 0 [4]: 100.00
metabolic stability in RLM, column 10 [4]: 89.16
metabolic stability in RLM, column 30 [4]: 79.33
metabolic stability in RLM, column 45 [4]: 52.13
metabolic stability in RLM, column 60 [4]: 46.62
t1/2 in RLM [4]: 48.99 min

C[C@]12C[C@@H]3C[C@](C)(C1)C[C@@](NC(=O)Nc1ccc(C(=O)N4CCC[C@H](C(=O)NCCCCCCC(=O)NO)C4)cc1F)(C3)C2 [Compound 7d, (S)-1-(4-(3-((1r,3R,5S,7S)-3,5-Dimethyladamantan-1-yl)ureido)-3-fluorobenzoyl)-N-(7-(hydroxyamino)-7-oxoheptyl)piperidine-3-carboxamide]
HDAC6 inhibitor rate [3]: 63%

O=C(CCCCCCNC(=O)[C@H]1CCCN(C(=O)c2ccc(NC(=O)Nc3ccc(F)c(Cl)c3)c(F)c2)C1)NO [Compound 28e, (S)-1-(4-(3-(3-Chloro-4-fluorophenyl)ureido)-3-fluorobenzoyl)-N-(7-(hydroxyamino)-7-oxoheptyl)piperidine-3-carboxamide]
IC50 [1]: 0.7 nM
IC50 [2]: 5.4 nM

CC12CC3CC(C)(C1)CC(Nc1c(Nc4ccc(C(=O)N5CCC[C@H](C(=O)NCCCCCCC(=O)NO)C5)cc4)c(=O)c1=O)(C3)C2 [Compound 40d, (S)-1-(4-((2-(((1r,3R,5S,7r)-3,5-Dimethyladamantan-1-yl)amino)-3,4-dioxocyclobut-1-en-1-yl)amino)benzoyl)-N-(7-(hydroxyamino)-7-oxoheptyl)piperidine-3-carboxamide]
IC50 [5]: 415 nM
IC50 [6]: 2530 nM
IC50 [7]: 1450 nM
HDAC6 inhibitor rate [3]: 99.66%
IC50 ([3]; read-out: HDAC6 IC50, mean of at least three experiments): 162 nM
IC50 [8]: 158 nM
IC50 [9]: 241 nM

Cc1ccc(-c2cc(C(F)(F)F)nn2-c2ccc(S(N)(=O)=O)cc2)cc1 [Celecoxib, reference compound]
Inhibition rate [10]: 32.83%
Swelling degree [10]: 10.5 ± 1.5 mg
Swelling rate [10]: 74.21%
pain response, second phasic response [11]: reduced the pain response

CC12CC3CC(C)(C1)CC(Nc1c(Nc4ccc(CN5CCC[C@H](C(=O)NCCCCCCC(=O)NO)C5)cc4F)c(=O)c1=O)(C3)C2 [Compound 34d, (S)-1-(4-((2-(((1r,3R,5S,7r)-3,5-Dimethyladamantan-1-yl)amino)-3,4-dioxocyclobut-1-en-1-yl)amino)-3-fluorobenzyl)-N-(7-(hydroxyamino)-7-oxoheptyl)piperidine-3-carb-oxamide]
metabolic stability in RLM, column 0 [4]: 100.00
metabolic stability in RLM, column 10 [4]: 82.82
metabolic stability in RLM, column 30 [4]: 73.29
metabolic stability in RLM, column 45 [4]: 66.27
metabolic stability in RLM, column 60 [4]: 50.51
t1/2 in RLM [4]: 73.36 min

O=C(CCCCCCNC(=O)[C@H]1CCCN(C(=O)c2ccc(NC(=O)NC(c3ccccc3)c3ccccc3)c(F)c2)C1)NO [Compound 28k, (S)-1-(4-(3-Benzhydrylureido)-3-fluorobenzoyl)-N-(7-(hydroxyamino)-7-oxoheptyl) piperidine-3-carboxamide]
HDAC6 inhibitor rate [3]: 63.58%

Cc1cc(NC(=O)Nc2ccc(C(=O)N3CCC[C@H](C(=O)NCCCCCCC(=O)NO)C3)cc2F)ccc1F [Compound 28i, (S)-1-(3-Fluoro-4-(3-(4-fluoro-3-methylphenyl)ureido)benzoyl)-N-(7-(hydroxyamino)-7-oxoheptyl)piperidine-3-carboxamide]
IC50 [1]: 1.2 nM
IC50 [2]: 7.7 nM
